Test results taken from patent US20240034929A1, “SCINTILLATION MATERIALS AND METHODS” (Florida State University Research Foundation, Inc., priority 2022, published 2024).

Assay: Thermogravimetric analysis (thermal stability)
Assay type: physicochemical
Details: heated from room temperature to 700° C. at 5° C./min under argon flux
Description: More detailed crystallographic results are provided in FIGS. 17a and 17b and the table in FIG. 7. The 0D structure at the molecular level was clearly observed in (TPA-P)2ZnBr4 with ZnBr4^2− tetrahedrons completely isolated and surrounded by TPA-P^+ cations. The zinc center adopted a typical tetra-coordinated geometry bonded to the bromide ions, with an average Zn—Br bond length of 2.41 Å and bond angle of 109.740 (see also the table in FIG. 8).
Thermal Stability Analysis: TGA studies were done using a TA instruments Q600 system. The sample was heated from room temperature to 700° C. at a 5° C./min rate under an argon flux of 100 ml/min.

In the case of CCC[n+]1ccc(-c2ccc(N(c3ccccc3)c3ccccc3)cc2)cc1.[Br-] [TPA-PBr, 4-(4-(diphenylamino)phenyl)-1-(Propyl)-pyrindin-lium bromide], the “onset weight loss (thermogravimetric analysis)” value is reported as 211 °C.
